We go through five compounds from ChEMBL document CHEMBL1132511, “Stereospecific synthesis of a GS 4104 metabolite: determination of absolute stereochemistry and influenza neuraminidase inhibitory activity” (Bioorg Med Chem Lett, 1999).

Molecules are shown by their SMILES.

The target in assay [1] is Neuraminidase (Influenza A virus (A/Puerto Rico/8/1934(H1N1)), UniProt P03468). The experiment in a line: In vitro inhibitory activity against influenza A neuraminidase using enzymatic assay.
The test system of a further assay is Influenza B virus. The experiment in a line: In vitro inhibitory activity against influenza B neuraminidase using enzymatic assay. The format is functional.

Neuraminidase (Influenza A virus (A/Puerto Rico/8/1934(H1N1)), UniProt P03468), sequence (P03468 whole entry): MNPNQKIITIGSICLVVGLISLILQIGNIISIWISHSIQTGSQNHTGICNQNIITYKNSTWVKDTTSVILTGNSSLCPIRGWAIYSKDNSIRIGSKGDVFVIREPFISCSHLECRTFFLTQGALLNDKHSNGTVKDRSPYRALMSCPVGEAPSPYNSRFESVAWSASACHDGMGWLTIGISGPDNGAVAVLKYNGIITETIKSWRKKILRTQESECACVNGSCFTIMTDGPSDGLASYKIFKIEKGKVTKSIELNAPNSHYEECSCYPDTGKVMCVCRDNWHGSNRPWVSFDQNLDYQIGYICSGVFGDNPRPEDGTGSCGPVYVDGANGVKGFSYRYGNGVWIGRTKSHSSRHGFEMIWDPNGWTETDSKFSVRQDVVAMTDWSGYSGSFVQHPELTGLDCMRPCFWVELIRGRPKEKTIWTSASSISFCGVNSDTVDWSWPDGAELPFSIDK

For `CC[C@H](CC(=O)O)O[C@@H]1C=C(C(=O)O)C[C@H](N)[C@H]1NC(C)=O`, in assay [1], 1150 nM corresponded to half-maximal inhibition (IC50).
As to `CC[C@@H](CCO)O[C@@H]1C=C(C(=O)O)C[C@H](N)[C@H]1NC(C)=O`, the figures for the IC50 (in assay [1]; in the assay with Influenza B virus) were 30 nM and 85 nM, respectively.
For the compound `CC[C@@H](CC(=O)O)O[C@@H]1C=C(C(=O)O)C[C@H](N)[C@H]1NC(C)=O`, the 50% inhibitory concentration (IC50) in assay [1] was found to be 450 nM.
As for `CC[C@H](CCO)O[C@@H]1C=C(C(=O)O)C[C@H](N)[C@H]1NC(C)=O`, the concentration for half-maximal inhibition (IC50) in assay [1] worked out at 40 nM; in the assay on Influenza B virus, 400 nM.
In the case of `CCC(CC)O[C@@H]1C=C(C(=O)O)C[C@H](N)[C@H]1NC(C)=O` [OSELTAMIVIR CARBOXYLATE], the midpoint of inhibition in the assay on Influenza B virus, the IC50, lay at 4 nM.

By IC50 is commonly meant the concentration needed to halve the response being measured. A high value points to lower potency.
